Measured values published in patent US10035771B2 (priority 2013, dated 2018).

How the values were obtained:
[1] = biological target: tetanus toxin light chain (TeNt-LC) (Clostridium tetani, UniProt P04958); assay: biochemical; settings: for inhibition at 200 µg/mL: read-out: Inhibition rate %
[2] = biological target: type A botulinum toxin (BoNT/A) (Clostridium botulinum, UniProt P0DPI1); set-up: species or system Balb/c mice; settings: mouse, in vivo, ip
[3] = biological target: type B botulinum toxin (BoNT/B) (Clostridium botulinum, UniProt P10844); set-up: species or system Balb/c mice; settings: mouse, in vivo, ip
[4] = biological target: type E botulinum toxin light chain (BoNT/E-LC) (Clostridium botulinum, UniProt Q00496); assay: biochemical; settings: for inhibition at 100 µg/mL: read-out: Inhibition rate %
BoNT/F-LC = BoNT/F-LC (Clostridium botulinum, UniProt A7GBG3); assay: biochemical; settings: for inhibition at 100 µg/mL: read-out: Inhibition rate %
[5] = biological target: type B botulinum toxin light chain (BoNT/B-LC) (Clostridium botulinum, UniProt P10844); assay: biochemical; settings: for inhibition at 100 µg/mL: read-out: Inhibition rate %
[6] = biological target: type A botulinum toxin light chain (BoNT/A-LC) (Clostridium botulinum, UniProt P0DPI1); assay: biochemical; settings: for inhibition at 100 µg/mL: read-out: Inhibition rate %
[7] = biological target: light chain of type A botulinum toxin (Clostridium botulinum, UniProt P0DPI1); settings: read-out: Ki value; cited from earlier work

Chain of tetanus toxin light chain (TeNt-LC) (P04958 2-457 limits assumed): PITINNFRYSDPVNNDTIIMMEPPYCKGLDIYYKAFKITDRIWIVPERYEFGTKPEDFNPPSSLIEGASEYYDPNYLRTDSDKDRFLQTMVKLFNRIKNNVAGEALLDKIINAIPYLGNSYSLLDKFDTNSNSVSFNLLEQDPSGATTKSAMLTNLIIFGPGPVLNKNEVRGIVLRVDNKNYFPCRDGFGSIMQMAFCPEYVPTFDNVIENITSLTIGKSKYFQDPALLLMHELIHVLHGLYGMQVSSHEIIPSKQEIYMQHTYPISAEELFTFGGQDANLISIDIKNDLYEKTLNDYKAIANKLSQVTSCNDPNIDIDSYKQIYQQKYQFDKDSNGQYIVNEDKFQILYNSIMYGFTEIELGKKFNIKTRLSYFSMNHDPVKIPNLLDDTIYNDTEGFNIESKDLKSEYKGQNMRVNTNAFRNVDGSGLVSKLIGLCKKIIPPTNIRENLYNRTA
Chain of type A botulinum toxin light chain (BoNT/A-LC) (P0DPI1 2-448 limits assumed): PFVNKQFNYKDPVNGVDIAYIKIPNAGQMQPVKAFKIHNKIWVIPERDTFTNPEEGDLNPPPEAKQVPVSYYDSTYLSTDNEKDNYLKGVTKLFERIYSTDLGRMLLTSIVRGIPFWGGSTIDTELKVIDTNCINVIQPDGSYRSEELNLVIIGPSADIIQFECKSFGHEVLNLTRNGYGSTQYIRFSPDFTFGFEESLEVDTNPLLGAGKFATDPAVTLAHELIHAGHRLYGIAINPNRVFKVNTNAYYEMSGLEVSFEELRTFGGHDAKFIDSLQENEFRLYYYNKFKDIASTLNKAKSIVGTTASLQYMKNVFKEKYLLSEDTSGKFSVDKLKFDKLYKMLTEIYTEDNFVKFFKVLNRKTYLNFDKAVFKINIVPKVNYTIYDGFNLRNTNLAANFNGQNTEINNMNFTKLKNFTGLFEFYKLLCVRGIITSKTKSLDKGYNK
Chain of type A botulinum toxin (BoNT/A) (P0DPI1 2-448 limits assumed): as above
Chain of type A botulinum toxin (BoNT/A) (P0DPI1 449-1296 limits assumed): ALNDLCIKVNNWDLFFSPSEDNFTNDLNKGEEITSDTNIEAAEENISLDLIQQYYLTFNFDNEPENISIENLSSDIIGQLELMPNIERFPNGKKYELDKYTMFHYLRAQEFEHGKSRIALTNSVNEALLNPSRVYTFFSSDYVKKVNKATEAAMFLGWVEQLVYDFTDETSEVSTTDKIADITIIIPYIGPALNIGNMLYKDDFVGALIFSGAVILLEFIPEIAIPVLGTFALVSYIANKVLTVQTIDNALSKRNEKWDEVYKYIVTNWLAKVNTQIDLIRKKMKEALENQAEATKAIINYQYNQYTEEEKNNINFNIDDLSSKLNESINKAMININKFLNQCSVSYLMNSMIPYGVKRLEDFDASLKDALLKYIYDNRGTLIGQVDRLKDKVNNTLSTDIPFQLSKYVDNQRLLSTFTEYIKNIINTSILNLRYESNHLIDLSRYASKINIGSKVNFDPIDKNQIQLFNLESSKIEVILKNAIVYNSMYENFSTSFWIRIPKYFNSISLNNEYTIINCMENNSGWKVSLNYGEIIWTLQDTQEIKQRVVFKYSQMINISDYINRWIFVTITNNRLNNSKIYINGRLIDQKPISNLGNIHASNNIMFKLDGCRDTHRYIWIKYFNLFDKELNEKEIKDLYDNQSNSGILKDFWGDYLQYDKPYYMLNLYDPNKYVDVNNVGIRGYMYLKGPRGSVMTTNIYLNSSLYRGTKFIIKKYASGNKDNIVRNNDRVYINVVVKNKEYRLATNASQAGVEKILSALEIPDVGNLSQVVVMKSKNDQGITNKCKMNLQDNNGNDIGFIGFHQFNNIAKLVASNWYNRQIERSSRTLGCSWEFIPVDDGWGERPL
Chain of BoNT/F-LC (A7GBG3 1-436 limits assumed): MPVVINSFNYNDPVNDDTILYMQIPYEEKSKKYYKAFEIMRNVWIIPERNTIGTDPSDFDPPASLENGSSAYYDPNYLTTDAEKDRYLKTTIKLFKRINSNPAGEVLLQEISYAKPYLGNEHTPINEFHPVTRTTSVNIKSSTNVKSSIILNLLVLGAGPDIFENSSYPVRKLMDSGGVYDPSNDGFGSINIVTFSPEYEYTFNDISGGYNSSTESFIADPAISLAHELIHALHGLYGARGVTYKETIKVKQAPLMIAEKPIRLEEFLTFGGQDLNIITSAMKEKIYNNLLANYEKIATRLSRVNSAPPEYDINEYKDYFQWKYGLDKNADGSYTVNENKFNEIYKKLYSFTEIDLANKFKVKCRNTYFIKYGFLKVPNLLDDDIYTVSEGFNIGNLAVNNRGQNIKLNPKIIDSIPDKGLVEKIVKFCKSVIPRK
Chain of type E botulinum toxin light chain (BoNT/E-LC) (Q00496 2-422 limits assumed): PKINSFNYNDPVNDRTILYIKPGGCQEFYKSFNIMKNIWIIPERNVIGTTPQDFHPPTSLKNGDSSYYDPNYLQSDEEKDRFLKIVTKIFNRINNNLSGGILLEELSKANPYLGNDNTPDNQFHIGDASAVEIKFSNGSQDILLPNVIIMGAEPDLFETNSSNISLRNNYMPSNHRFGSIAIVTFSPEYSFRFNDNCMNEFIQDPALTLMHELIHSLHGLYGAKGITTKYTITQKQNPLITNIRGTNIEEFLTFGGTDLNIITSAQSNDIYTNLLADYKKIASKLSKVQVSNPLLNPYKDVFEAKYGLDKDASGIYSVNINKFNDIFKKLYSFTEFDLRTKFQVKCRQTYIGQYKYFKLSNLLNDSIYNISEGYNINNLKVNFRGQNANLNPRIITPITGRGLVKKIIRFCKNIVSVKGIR
Chain of type B botulinum toxin (BoNT/B) (P10844 2-441 limits assumed): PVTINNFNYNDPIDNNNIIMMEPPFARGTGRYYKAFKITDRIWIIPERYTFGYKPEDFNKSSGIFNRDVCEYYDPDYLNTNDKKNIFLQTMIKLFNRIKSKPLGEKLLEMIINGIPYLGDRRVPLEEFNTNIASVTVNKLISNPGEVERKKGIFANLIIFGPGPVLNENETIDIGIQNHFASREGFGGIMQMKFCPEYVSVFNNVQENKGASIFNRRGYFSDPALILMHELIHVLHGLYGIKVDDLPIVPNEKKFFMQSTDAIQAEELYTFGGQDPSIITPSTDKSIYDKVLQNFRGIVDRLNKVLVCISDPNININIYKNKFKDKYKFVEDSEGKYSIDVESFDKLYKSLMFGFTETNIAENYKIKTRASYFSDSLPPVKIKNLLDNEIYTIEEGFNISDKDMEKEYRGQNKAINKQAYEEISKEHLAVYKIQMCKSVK
Chain of type B botulinum toxin (BoNT/B) (P10844 442-1291 limits assumed): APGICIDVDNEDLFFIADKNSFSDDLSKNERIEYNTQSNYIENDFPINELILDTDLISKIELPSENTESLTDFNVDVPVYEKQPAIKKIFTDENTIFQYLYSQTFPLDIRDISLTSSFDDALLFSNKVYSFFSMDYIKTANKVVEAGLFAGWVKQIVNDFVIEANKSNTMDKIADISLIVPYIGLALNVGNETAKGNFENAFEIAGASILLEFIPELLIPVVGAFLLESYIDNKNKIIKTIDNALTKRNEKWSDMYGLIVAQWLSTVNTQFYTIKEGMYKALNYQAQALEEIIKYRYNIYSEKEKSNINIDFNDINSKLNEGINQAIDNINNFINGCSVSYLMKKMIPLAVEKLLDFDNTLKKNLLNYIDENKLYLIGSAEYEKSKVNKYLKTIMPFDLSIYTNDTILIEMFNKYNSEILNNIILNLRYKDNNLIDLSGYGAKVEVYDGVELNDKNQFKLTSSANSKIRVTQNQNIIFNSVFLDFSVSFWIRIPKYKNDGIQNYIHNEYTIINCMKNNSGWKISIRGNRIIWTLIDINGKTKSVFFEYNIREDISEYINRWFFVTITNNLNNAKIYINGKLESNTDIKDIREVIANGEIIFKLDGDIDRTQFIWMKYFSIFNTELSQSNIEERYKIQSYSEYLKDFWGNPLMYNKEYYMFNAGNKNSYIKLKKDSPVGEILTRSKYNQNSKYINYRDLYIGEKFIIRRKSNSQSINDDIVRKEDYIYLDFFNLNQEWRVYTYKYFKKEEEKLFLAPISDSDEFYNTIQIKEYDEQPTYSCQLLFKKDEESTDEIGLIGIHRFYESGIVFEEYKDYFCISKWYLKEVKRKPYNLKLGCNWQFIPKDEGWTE
Chain of type B botulinum toxin light chain (BoNT/B-LC) (P10844 2-441 limits assumed): as the sequence (P10844 2-441 limits assumed) above

Row | Structure (SMILES) | inhibition at 200 µg/mL [1] [%] | % survival [3] [%] | inhibition at 100 µg/mL [4] [%] | inhibition at 100 µg/mL (BoNT/F-LC) [%] | inhibition at 100 µg/mL [5] [%] | inhibition at 100 µg/mL [6] [%] | other results
1 | O=C(CSc1ncccc1C(=O)[O-])Nc1cc(F)ccc1Cl.[K+] [Example 18, 2-(2-(5-fluoro-2-chlorophenyl)-2-acetylthio)nicotinate potassium] | 19.3 | 40 | 17.2 | 16.2 | 30.2 | 11.4 | % survival [2]: 0%
2 | O=C(CSc1ncccc1C(=O)[O-])Nc1ccccc1OC(F)(F)F.[K+] [Example 24] |  | 80 |  |  |  |  | 
3 | O=C(CSc1ncccc1C(=O)[O-])Nc1cc(Cl)ccc1OCc1ccccc1.[K+] [Example 23] |  | 80 |  |  |  |  | % survival [2]: 100%
4 | O=C(CSc1ncccc1C(=O)[O-])Nc1ccc(OC(F)(F)F)cc1.[K+] [Example 21] |  | 40 |  |  |  |  | % survival [2]: 40%
5 | O=C(CSc1ncccc1C(=O)[O-])Nc1ccccc1Cl.[K+] [Example 8, potassium] | 21.1 |  | 27.6 | 15.3 | 35 | 25.1 | 
6 | O=C(CSc1ncccc1C(=O)[O-])Nc1ccc(OC(F)(F)F)cc1.[K+] [Example 21, potassium] | 17.4 |  | 20.3 | 16.5 | 28 | 14.3 | 
7 | COc1ccc(Cl)c(NC(=O)CSc2ncccc2C(=O)[O-])c1.[K+] [Example 14] |  |  |  |  |  |  | % survival [2]: 20%
8 | O=C(CSc1ncccc1C(=O)[O-])Nc1ccccc1Cl.[K+] [Example 8] |  | 0 |  |  |  |  | % survival [2]: 80%
9 | O=C(CSc1ncccc1C(=O)O)Nc1cccc(OC(F)(F)F)c1 [Example 25, potassium] | 5.7 |  | 4.3 | 3 | 15.2 | 2.9 | 
10 | O=C(CSc1ncccc1C(=O)[O-])Nc1cc(Br)ccc1Br.[K+] [Example 9, potassium] | 15.2 |  | 8.2 | 12.1 | 29.2 | 9.3 | 
11 | O=C(CSc1ncccc1C(=O)O)Nc1cc(F)ccc1F [Example 22, potassium] | 4.4 |  | 2.1 | 3.4 | 2.7 | 3.2 | 
12 | COC(=O)c1ccc(O)c2nc3c(C=O)c(O)cc(O)c3nc12 [lomofungin] |  |  |  |  |  |  | Ki [7]: 6.7 ± 0.7 µM
13 | COc1cc(Cl)cc(NCC(=O)Sc2ncccc2C(=O)[O-])c1.[Na+] [Example 4, 2-(2-(3-chloro-5-methoxyanilino)acetylthio)nicotinate sodium] | 34.5 | 100 | 43.2 | 48.6 | 95.5 | 45.4 | % survival [2]: 100%
14 | O=C(CSc1ncccc1C(=O)[O-])Nc1cccc(Cl)c1.[K+] [Example 20] |  | 0 |  |  |  |  | 
15 | CCCOc1ccc(Cl)cc1NC(=O)CSc1ncccc1C(=O)O [Example 7] | 20 |  | 14 | 11.3 | 24.2 | 18.1 | 
16 | COc1ccc(F)cc1NC(=O)CSc1ncccc1C(=O)O [Example 13, potassium] | 14.6 |  | 18.3 | 16.4 | 22 | 20.3 | 
17 | O=C(CSc1ncccc1C(=O)[O-])Nc1cc(OC(F)(F)F)ccc1Br.[K+] [Example 26] |  | 20 |  |  |  |  | 
18 | COc1ccc(OC)c(NC(=O)CSc2ncccc2C(=O)O)c1 [Example 16, potassium] | 16.2 |  | 5.2 | 9.8 | 20.1 | 17.9 | 

Row | Structure (SMILES) | inhibition at 200 µg/mL [1] [%] | % survival [3] [%] | inhibition at 100 µg/mL [4] [%] | inhibition at 100 µg/mL (BoNT/F-LC) [%] | inhibition at 100 µg/mL [5] [%] | inhibition at 100 µg/mL [6] [%] | other results
19 | O=C(CSc1ncccc1C(=O)[O-])Nc1ccc(Br)cc1.[K+] [Example 12] |  | 80 |  |  |  |  | 
20 | COc1ccc(Cl)cc1NC(=O)CSc1cc(C(=O)[O-])ccn1.[K+] [Example 15, potassium] | 23.5 |  | 16.3 | 7.2 | 19.4 | 3 | 
21 | CCOc1ccc(Cl)cc1NC(=O)CSc1ncccc1C(=O)O [Example 6] | 4.7 |  | 16.8 | 6.7 | 8.6 | 14.7 | 
22 | COc1ccc(Cl)cc1NC(=O)CSc1cc(C(=O)[O-])ccn1.[K+] [Example 15] |  |  |  |  |  |  | % survival [2]: 80%
23 | COc1ccc(Cl)cc1NC(=O)CSc1ncccc1C(=O)O [Example 2] | 12.3 |  | 11.6 | 13.2 | 20.5 | 12.1 | 
24 | O=C(CSc1ncccc1C(=O)O)Nc1ccc(F)cc1 [Example 19, potassium] | 2.7 |  | 6.8 | 4 | 3 | 3 | 
25 | O=C(CSc1ncccc1C(=O)[O-])Nc1cc(Br)ccc1Br.[K+] [Example 9] |  | 20 |  |  |  |  | 
26 | O=C(CSc1ncccc1C(=O)[O-])Nc1ccccc1OC(F)(F)F.[K+] [Example 24, potassium] | 13.2 |  | 5.6 | 11.2 | 29.3 | 8.9 | 
27 | CCOc1ccccc1NC(=O)CSc1ncccc1C(=O)O [Example 5] | 8 |  | 6.8 | 5 | 4.3 | 2.7 | 
28 | O=C(CSc1ncccc1C(=O)O)Nc1ccccc1 [Example 17, 2-(anilino-2-acetylthio)nicotinic Acid] | 6.4 |  | 18 | 8.3 | 3.7 | 15.4 | 
29 | COc1ccc(Cl)c(NC(=O)CSc2ncccc2C(=O)[O-])c1.[K+] [Example 14, potassium] | 12.3 |  | 13.5 | 9.8 | 24.2 | 19.8 | 
30 | O=C(CSc1ncccc1C(=O)[O-])Nc1cc(Cl)ccc1OCc1ccccc1.[K+] [Example 23, sodium] | 30.3 |  | 50.7 | 35.8 | 55.7 | 78 | 
31 | COc1ccc(Cl)cc1NCC(=O)Sc1ncccc1C(=O)[O-].[Na+] [Example 1, 2-(2-(5-chloro-2-methoxyanilino)acetylthio)nicotinate sodium] | 12.8 | 40 | 7.32 | 12.2 | 27.8 | 8.4 | 
32 | O=C(CSc1ncccc1C(=O)[O-])Nc1cc(OC(F)(F)F)ccc1Br.[K+] [Example 26, potassium] | 17.1 |  | 12.1 | 13.1 | 30 | 27.4 | 
33 | COc1ccc(Cl)cc1NC(=O)CSc1ncccc1C(=O)[O-].[K+] [Example 3] |  | 60 |  |  |  |  | Inhibition rate % [1]: 20.2%; % survival [2]: 40%; Inhibition rate % [4]: 16.5%; Inhibition rate % (BoNT/F-LC): 19.2%; Inhibition rate % [5]: 30.2%; Inhibition rate % [6]: 11.3%
34 | O=C(CSc1ncccc1C(=O)[O-])Nc1cccc(Cl)c1.[K+] [Example 20, potassium] | 22.2 |  | 4.2 | 17.8 | 41 | 6.8 | 
35 | O=C(CSc1ncccc1C(=O)[O-])Nc1ccc(Br)cc1.[K+] [Example 12, potassium] | 16.4 |  | 12.3 | 13.2 | 29.1 | 9.4 | 
